Reference: US3998790A, “Phenoxy-hydroxypropylamines, their preparation, and method and pharmaceutical preparations for treating cardiovascular diseases” (priority 1974, dated 1976)
Read-outs that look alike come from different tables or passages of the source.

Legend:
heart rate = assay: intrinsic stimulating activity on heart rate in reserpinized cats; type: in vivo, cat; conditions: Felis catus, read-out: Intrinsic activity % of maximal isoprenaline heart rate
Method: (§1) Compounds prepared according to the examples were evaluated for intrinsic activity and blocking effect on heart rate and: peripheral vasodilator response to isoprenaline in the cat. The acute LD50 in mice was evaluated.
(§2) Cats weighing between 1.8 and 2.8 kg were anaesthetized with 30 mg/kg pentobarbital sodium, intraperitoneally. The cats had been pretreated with reserpine, 5 mg/kg intramuscular, about 18 hours before the experiment. Bilateral vagotomy was performed before the start of the experiment.
The heart rate was recorded on an Offner cardiotachometer triggered by the EKG-complex. Mean arterial blood pressure was recorded from a carotid artery. The peripheral resistance was measured in one of the legs of the cat in the following way: The femoral artery was opened in the inguinal region and the leg was perfused by blood delivered through a sigma motor pump at constant rate. The flow resistance (the pressure) was recorded via a pressure transudcer connected to the catheter distally to the pump. […] An isoprenaline dose giving 70-80% of the maximal chronotropic response was determined. […] Ten minutes before each isoprenaline injection, the tested substances were administered intravenously for two minutes, starting with a dose of 0.01 mg/kg and increasing each subsequent dose fourfold. The intrinsic effects of the test substances were determined. The dose producing 50% blockade of the isoprenaline responses was evaluated from the plotted log dose-percent blockade diagrams.

in vivo = conditions: mouse, ip
Method: as §1

β-receptors of the heart = molecular target: T1, β-receptors of the heart (Felis catus, UniProt Q9TST6); assay: β-blocking activity on heart rate (isoprenaline response) in reserpinized cats; type: in vivo, cat; conditions: read-out: β-blockade Heart rate ED50
T1 construct: Intravenously injected isoprenaline increased the heart rate and reduced the perfusion pressure; from tissue; host or cells: heart of the intact anaesthetized, reserpinized, vagotomized cat (in vivo)
Method: (§3) The acute LD50 in mice was evaluated. Alprenolol was used as a reference substance.
as §2
(§4) The heart rate was recorded on an Offner cardiotachometer triggered by the EKG-complex. Mean arterial blood pressure was recorded from a carotid artery. The peripheral resistance was measured in one of the legs of the cat in the following way: The femoral artery was opened in the inguinal region and the leg was perfused by blood delivered through a sigma motor pump at constant rate. The flow resistance (the pressure) was recorded via a pressure transudcer connected to the catheter distally to the pump. The paw was excluded from the circulation by a tight ligature Intravenously injected isoprenaline increased the heart rate and reduced the perfusion pressure. An isoprenaline dose giving 70-80% of the maximal chronotropic response was determined. This dose (usually 0.1 μg/kg) was then repeated with 20 minute intervals. Ten minutes before each isoprenaline injection, the tested substances were administered intravenously for two minutes, starting with a dose of 0.01 mg/kg and increasing each subsequent dose fourfold. The intrinsic effects of the test substances were determined. The dose producing 50% blockade of the isoprenaline responses was evaluated from the plotted log dose-percent blockade diagrams.

[1] = molecular target: T2, peripheral vascular β-receptors (Felis catus, UniProt Q9TST5); assay: β-blocking activity on peripheral vascular resistance (vasodilator response to isoprenaline) in reserpinized cats; type: in vivo, cat; conditions: read-out: β-blockade peripheral vascular resistance ED50
T2 construct: from tissue; host or cells: vascular bed of the perfused leg of the anaesthetized, reserpinized cat, paw excluded (in vivo)
Method: as §3, §2, §4

[2] = reserpinized cat, intravenous, dose producing 50% blockade of isoprenaline response
[3] = reserpinized cat, pentobarbital anaesthesia, intravenous

T2 sequence (Q9TST5 whole entry, the tested form may be a part): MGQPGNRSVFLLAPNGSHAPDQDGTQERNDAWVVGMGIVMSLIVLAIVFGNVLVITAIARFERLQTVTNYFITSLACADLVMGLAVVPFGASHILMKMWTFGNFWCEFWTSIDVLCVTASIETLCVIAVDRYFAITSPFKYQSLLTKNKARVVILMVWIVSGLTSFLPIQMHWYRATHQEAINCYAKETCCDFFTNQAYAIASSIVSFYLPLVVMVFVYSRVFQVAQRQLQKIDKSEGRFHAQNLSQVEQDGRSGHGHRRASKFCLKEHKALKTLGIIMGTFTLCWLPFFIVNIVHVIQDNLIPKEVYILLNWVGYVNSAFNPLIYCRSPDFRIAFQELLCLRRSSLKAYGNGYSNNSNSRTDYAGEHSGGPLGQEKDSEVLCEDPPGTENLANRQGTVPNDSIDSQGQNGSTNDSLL
T1 sequence (Q9TST6 whole entry, the tested form may be a part): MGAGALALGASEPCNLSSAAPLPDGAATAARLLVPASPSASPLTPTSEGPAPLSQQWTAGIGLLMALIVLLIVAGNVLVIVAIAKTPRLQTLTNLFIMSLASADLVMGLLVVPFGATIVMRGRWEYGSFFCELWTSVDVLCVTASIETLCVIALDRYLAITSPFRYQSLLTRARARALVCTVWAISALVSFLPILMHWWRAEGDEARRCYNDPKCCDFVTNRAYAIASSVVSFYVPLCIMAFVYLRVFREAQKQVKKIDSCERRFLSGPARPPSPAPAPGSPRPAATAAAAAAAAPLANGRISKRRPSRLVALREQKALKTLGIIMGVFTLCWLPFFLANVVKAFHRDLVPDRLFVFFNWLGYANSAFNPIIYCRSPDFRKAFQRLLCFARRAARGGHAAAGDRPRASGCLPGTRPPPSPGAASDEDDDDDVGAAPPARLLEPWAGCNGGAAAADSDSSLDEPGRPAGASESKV

Row | Compound | Emax (heart rate; iv) [%] | LD50 (in vivo) [mg/kg] | ED50 (β-receptors of the heart; [2]) [mg/kg] | ED50 [1, 2] [mg/kg] | Emax (heart rate; [3]) [%] | ED50 (β-receptors of the heart; cat, iv) [mg/kg] | ED50 ([1]; cat, iv) [mg/kg]
1 | CCOC(=O)NCCc1ccc(OCC(O)CNC(C)C)cc1 (centres unmarked) | 0 | 200 | 0.3 | 25 |  |  | 
2 | COC(=O)NCCc1ccc(OCC(O)CNC(C)C)cc1 (centres unmarked) [(no label)] | 0 | 125 | 0.4 | 19 |  |  | 
3 | COCCc1ccc(OCC(O)CNC(C)C)cc1 (stereo not drawn) [Ex. I, 1-isopropylamino-3-[p-(β-methoxyethyl)-phenoxy]-propanol-2] |  | 200 |  |  | 0 | 0.4 | 3
4 | CCOCCc1ccc(OCC(O)CNC(C)C)cc1 (stereo not drawn) [Ex. II, 1-isopropylamino-3-[p-(β-ethoxyethyl)-phenoxy]-propanol-2] |  | 150 | 0.3 | 4 | 0 |  | 
5 | CCOCc1ccc(OCC(O)CNC(C)C)cc1 (centres unmarked) [Ex. III, 1-isopropylamino-3-(p-ethoxymethyl-phenoxy)-propanol-2] |  | 175 | 0.4 | 6 | 0 |  | 
6 | C=CCc1ccccc1OCC(O)CNC(C)C (centres unmarked) [alprenolol, reference compound] |  |  |  |  | 20 | 0.1 | 0.05
